Activity calls are given as the source filed them. The rule behind the calls is not given here.
Legend:
[1] = Selectivity index, ratio of CC50 for cytotoxicity against LPS-stimulated mouse RAW264.7 cells to MIC50 for antitubercular activity against Mycobacterium tuberculosis H37Rv; assay type: toxicity, cell-based; conditions: LPS-stimulated RAW264.7 cells, read-out: Selectivity Index
[2] = Cytotoxicity against LPS-stimulated mouse RAW264.7 cells after 24 hrs by MTT assay; assay type: toxicity, cell-based; conditions: LPS-stimulated RAW264.7 cells
RAW264.7 [3] = assay: Inhibition of NO production in mouse RAW264.7 cells incubated for 24 hrs by Griess reagent based analysis; assay type: functional, cell-based; conditions: RAW264.7, 24 h
[4] = tested on: Mycobacterium tuberculosis; assay: Antitubercular activity against Mycobacterium tuberculosis H37Rv assessed as reduction in microbial growth after 5 days by MTT assay; assay type: functional; conditions: 120 h, time 5 day
RAW264.7 [5] = assay: Anti-inflammatory activity against LPS-stimulated mouse RAW264.7 cells assessed as reduction in IL1beta protein expression level after 24 hrs by ELISA; assay type: functional, cell-based; conditions: RAW264.7, 24 h
RAW264.7 [6] = assay: Anti-inflammatory activity against LPS-stimulated mouse RAW264.7 cells assessed as reduction in TNFalpha protein expression level at 12.5 uM after 24 hrs by ELISA; assay type: functional, cell-based
RAW264.7 [7] = assay: Anti-inflammatory activity against LPS-stimulated mouse RAW264.7 cells assessed as reduction in TNFalpha protein expression level after 24 hrs by ELISA; assay type: functional, cell-based; conditions: RAW264.7, 24 h
[8] = tested on: Mycobacterium tuberculosis; assay: Antitubercular activity against Mycobacterium tuberculosis M299 infected in mouse RAW264.7 cells assessed as reduction in intracellular microbial growth after 4 days followed by cell lysis and measured after 21 days; assay type: functional; conditions: M299, 96 h, time 4 day
[9] = tested on: Mycobacterium tuberculosis; assay: Antitubercular activity against Mycobacterium tuberculosis H37Rv infected in mouse RAW264.7 cells assessed as reduction in microbial growth after 4 days followed by cell lysis and measured after 21 days; assay type: functional; conditions: 96 h, time 4 day
RAW264.7 [10] = assay: Anti-inflammatory activity against LPS-stimulated mouse RAW264.7 cells assessed as reduction in iNOS protein expression level at 100 uM after 24 hrs by immunoblot analysis relative to control; assay type: functional
[11] = tested on: Mycobacterium tuberculosis; assay: Antitubercular activity against Mycobacterium tuberculosis M299 assessed as reduction in microbial growth after 5 days by MTT assay; assay type: functional, organism-based; conditions: M299, 120 h
[12] = Selectivity index, ratio of CC50 for cytotoxicity against LPS-stimulated mouse RAW264.7 cells to MIC50 for antitubercular activity against Mycobacterium tuberculosis M299; assay type: toxicity, cell-based; conditions: LPS-stimulated RAW264.7 cells, read-out: Selectivity Index
RAW264.7 [13] = assay: Anti-inflammatory activity against LPS-stimulated mouse RAW264.7 cells assessed as reduction in iNOS protein expression level at 50 uM after 24 hrs by immunoblot analysis; assay type: functional, cell-based

| Compound | selectivity ratio [1] | CC50 at 24 h [2] | IC50 (RAW264.7 [3]) | MIC50 [4] | IC50 (RAW264.7 [5]) | inhibition (RAW264.7 [6]) | IC50 (RAW264.7 [7]) | MIC50 [8] | MIC50 [9] | inhibition at 100 µM (RAW264.7 [10]) | IC50 [11] | selectivity ratio [12] | inhibition (RAW264.7 [13]) |
| --- | --- | --- | --- | --- | --- | --- | --- | --- | --- | --- | --- | --- | --- |
| O=C(C1CCCO1)N1CCN(C(=S)Nc2ccccc2)CC1 (stereo not drawn) | > 8.6 | ≥ 200 µM | 187 µM | 23.3 µM |  |  |  |  |  |  |  |  |  |
| S=C(Nc1ccccc1)N1CCN(c2ccccc2Cl)CC1 | 0.8 | 30.5 µM | ≥ 200 µM | 37.3 µM |  |  |  |  |  |  |  |  |  |
| Oc1ccc(N2CCN(C(=S)Nc3ccccc3)CC2)cc1 | 1.2 | 186 µM | 155 µM | 155 µM |  |  |  |  |  |  |  |  |  |
| S=C(NCCc1ccccc1)N1CCOCC1 | > 1 | ≥ 200 µM | ≥ 200 µM | ≥ 200 µM |  |  |  |  |  |  |  |  |  |
| COc1cc(NC(=S)NC#N)cc(OC)c1OC | > 1.1 | ≥ 200 µM | 3.9 µM | 184 µM |  |  |  |  |  |  |  |  |  |
| N#CNC(=S)NCCc1ccccc1 | 1.9 | 65.9 µM | 10.1 µM | 33.3 µM |  |  |  |  |  |  |  |  |  |
| Oc1cccc(NC(=S)NCc2ccccc2)c1 | > 2.6 | ≥ 200 µM | 200 µM | 77.2 µM |  |  |  |  |  |  |  |  |  |
| CC(C)Cc1ccc(C(C)C(=O)O)cc1 (stereo not drawn) [IBUPROFEN] |  |  |  |  | 14.4 µM | Active | 2.1 µM |  |  |  |  |  |  |
| S=C(NCc1ccccc1)Nc1ccc2c(c1)OCCO2 | > 100 | ≥ 200 µM | 13.7 µM | 2 µM | 33.2 µM | Active | 20.7 µM | 19.4 µM | 4.8 µM | ≤ 100% | 11.3 µM | ≥ 17.7 |  |
| COc1ccc(NC(S)=Nc2ccccc2)cc1 | 2.7 | 43.3 µM | ≥ 200 µM | 16.2 µM |  |  |  |  |  |  |  |  |  |
| CCN(CC)C(=S)NCc1ccccc1 | > 4.9 | ≥ 200 µM | 15.7 µM | 40.2 µM |  |  |  |  |  |  |  |  |  |
| COc1cc(NC(=S)Nc2ccccc2)cc(OC)c1OC | 5.3 | 154 µM | 15.2 µM | 28.9 µM |  |  |  |  |  |  |  |  |  |
| COc1ccc(CN2CCN(C(=S)Nc3ccccc3)CC2)c(OC)c1OC | 2.2 | 34.9 µM | ≥ 200 µM | 16 µM |  |  |  |  |  |  |  |  |  |
| CCCCNC(=S)NCc1ccccc1 | 1.1 | 177 µM | 143 µM | 160 µM |  |  |  |  |  |  |  |  |  |
| OCCNC(=S)Nc1ccccc1 | 1.9 | 105 µM | ≥ 200 µM | 53.3 µM |  |  |  |  |  |  |  |  |  |
| O=C(O)c1ccc(NC(=S)NCc2ccccc2)cc1O | 33.3 | 197 µM | 8.1 µM | 5.9 µM | 47.9 µM | Active | 28.4 µM | 24.7 µM | 10.9 µM | ≤ 100% | 24.7 µM | 8 |  |
| COc1cc(NC(=S)Nc2cc(OC)c(OC)c(OC)c2)cc(OC)c1OC | 0.9 | 60.6 µM | 31.8 µM | 64.2 µM |  |  |  |  |  |  |  |  |  |
| S=C(NCc1ccccc1)Nc1ccccn1 | > 1.1 | ≥ 200 µM | ≥ 200 µM | 17.7 µM |  |  |  |  |  |  |  |  |  |
| CC(C)c1ccc(NC(=S)NCc2ccccc2)cc1 | 52.5 | 121 µM | 2.4 µM | 2.3 µM | 55.7 µM | Active | 4 µM | 5.6 µM | 1.7 µM | ≤ 100% | 7.8 µM | 15.5 | Active |
| S=C(NCc1ccccc1)N(c1ccccc1)c1ccccc1 | 0.3 | 67.6 µM | ≥ 200 µM | ≥ 200 µM |  |  |  |  |  |  |  |  |  |
| CO[C@H]1/C=C/O[C@@]2(C)Oc3c(C)c(O)c4c(O)c(c(/C=N/N5CCN(C)CC5)c(O)c4c3C2=O)NC(=O)/C(C)=C\C=C\[C@H](C)[C@H](O)[C@@H](C)[C@@H](O)[C@@H](C)[C@H](OC(C)=O)[C@@H]1C [RIFAMPIN] |  |  |  | 0.2 µM |  |  |  |  |  |  | 1.2 µM |  |  |
| S=C(Nc1ccccc1)N1CCN(c2ccccn2)CC1 | > 21.1 | ≥ 200 µM | ≥ 200 µM | 9.5 µM |  |  |  |  |  |  |  |  |  |
| COc1ccc(NC(=S)NCc2ccccc2)cc1 | 133 | 105 µM | ≥ 200 µM | 7.9 µM |  |  |  |  |  |  |  |  |  |
| CN(C[C@H](O)[C@@H](O)[C@H](O)[C@H](O)CO)C(=S)NCc1ccccc1 | 0.8 | 104 µM | ≥ 200 µM | 134 µM |  |  |  |  |  |  |  |  |  |

| Compound | selectivity ratio [1] | CC50 at 24 h [2] | IC50 (RAW264.7 [3]) | MIC50 [4] | IC50 (RAW264.7 [5]) | inhibition (RAW264.7 [6]) | IC50 (RAW264.7 [7]) | MIC50 [8] | MIC50 [9] | inhibition at 100 µM (RAW264.7 [10]) | IC50 [11] | selectivity ratio [12] | inhibition (RAW264.7 [13]) |
| --- | --- | --- | --- | --- | --- | --- | --- | --- | --- | --- | --- | --- | --- |
| CC(C)NC(=S)NCCc1ccccc1 | > 1.9 | ≥ 200 µM | 20.6 µM | 108 µM |  |  |  |  |  |  |  |  |  |
| S=C(NCCc1ccccc1)N1CCN(c2ccccn2)CC1 | 3.2 | 40.6 µM | ≥ 200 µM | 12.6 µM |  |  |  |  |  |  |  |  |  |
| S=C(Nc1ccccc1)Nc1ccc(Br)cc1 | 0.9 | 27.1 µM | 1.9 µM | 28.9 µM |  |  |  |  |  |  |  |  |  |
| O=C(C1CCCO1)N1CCN(C(=S)NCc2ccccc2)CC1 (stereo not drawn) | > 8 | ≥ 200 µM | ≥ 200 µM | 24.9 µM |  |  |  |  |  |  |  |  |  |
| S=C(Nc1ccccc1)N1CCN(c2ncccn2)CC1 | > 1.6 | ≥ 200 µM | ≥ 200 µM | 127 µM |  |  |  |  |  |  |  |  |  |
| S=C(NCCc1ccccc1)N1CCN(c2ncccn2)CC1 | 1.2 | 40.6 µM | ≥ 200 µM | 34.9 µM |  |  |  |  |  |  |  |  |  |
| S=C(NCc1ccccc1)Nc1ccc2c(c1)OCO2 | > 1.5 | ≥ 200 µM | 24.8 µM | 132 µM |  |  |  |  |  |  |  |  |  |
| S=C(NCc1ccccc1)N1CCN(c2ncccn2)CC1 | 2.9 | 50.9 µM | ≥ 200 µM | 17.8 µM |  |  |  |  |  |  |  |  |  |
| CCCCN1CCN(C(=S)NCc2ccccc2)CC1 | > 1.3 | ≥ 200 µM | ≥ 200 µM | 157 µM |  |  |  |  |  |  |  |  |  |
| S=C(NCc1ccccc1)N1CCN(c2ccccc2)CC1 | 1.9 | 54.3 µM | 4.1 µM | 27.9 µM |  |  |  |  |  |  |  |  |  |
| O=C(NNC(=S)NCc1ccccc1)c1ccccc1 | 1.3 | 42.1 µM | ≥ 200 µM | 33.7 µM |  |  |  |  |  |  |  |  |  |
| COc1cc(NC(=S)N2CCN(c3ccc(O)cc3)CC2)cc(OC)c1OC | 0.2 | 17.3 µM | ≥ 200 µM | 80.9 µM |  |  |  |  |  |  |  |  |  |
| CCCCN1CCN(C(=S)Nc2ccccc2)CC1 | > 6.4 | ≥ 200 µM | ≥ 200 µM | 31.5 µM |  |  |  |  |  |  |  |  |  |
| S=C(Nc1ccccc1)N1CCN(Cc2ccc3c(c2)OCO3)CC1 | > 8.4 | ≥ 200 µM | 116 µM | 23.9 µM |  |  |  |  |  |  |  |  |  |
| S=C(Nc1ccccc1)Nc1ccccn1 | > 12.2 | ≥ 200 µM | 182 µM | 16.4 µM |  |  |  |  |  |  |  |  |  |
| S=C(NCc1ccccc1)N1CCN(Cc2ccc3c(c2)OCO3)CC1 | 15.9 | 136 µM | 110 µM | 8.5 µM |  |  |  |  |  |  |  |  |  |
| O=C(NNC(=S)NCc1ccccc1)c1ccncc1 | 71.7 | 93.2 µM | 7.4 µM | 1.3 µM | ≥ 200 µM | Active | 18.7 µM | 32 µM | 3.7 µM | ≤ 100% | 6.9 µM | 13.5 |  |
| COc1cc(NC(=S)NCCc2ccccc2)cc(OC)c1OC | > 25 | ≥ 200 µM | 4.1 µM | 8.6 µM | 80.2 µM | Active | 15.3 µM | 12.9 µM | 7.7 µM | ≤ 100% | 24.8 µM | ≥ 8.1 |  |
| CNC(=N)NCCC[C@H](N)C(=O)O [TILARGININE ACETATE] |  |  | 78.3 µM |  |  |  |  |  |  |  |  |  |  |
| OCCN(CCO)C(=S)Nc1ccccc1 | > 1 | ≥ 200 µM | 50.7 µM | ≥ 200 µM |  |  |  |  |  |  |  |  |  |
| S=C(NCCc1ccccc1)N1CCN(c2nc3ccccc3[nH]2)CC1 | 1.7 | 33.7 µM | ≥ 200 µM | 20 µM |  |  |  |  |  |  |  |  |  |
| CC(C)NC(=S)NCc1ccccc1 | > 3.5 | ≥ 200 µM | ≥ 200 µM | 57.8 µM |  |  |  |  |  |  |  |  |  |
| CCN(CC)C(S)=NCCc1ccccc1 | 4.9 | 87.3 µM | ≥ 200 µM | 17.6 µM |  |  |  |  |  |  |  |  |  |

— ChEMBL document CHEMBL5143547, “Antimycobacterial and anti-inflammatory activities of thiourea derivatives focusing on treatment approaches for severe pulmonary tuberculosis” (Bioorg Med Chem, 2022)
